Source: patent publication US20190211020A1 (Agency for Science, Technology and Research, priority 2012, published 2019)
Entries after “also recorded” stand apart in the source; their conditions may differ. Where two headings read alike, the source gives them in different places. Values belong to the molecule of their own block, whether it stands above or below them.

Legend:
[1] = system: beta-catenin transcriptional activity; settings: background; cited from earlier work
[2] = system: CD34+BC cells (including those carrying T315I mutation); settings: background; cited from earlier work
[3] = system: patient-derived BC cells in NSG mice; settings: 40 mg/kg/d CGP or 5 mg/kg/d dasatinib for three weeks; read at 16 weeks; cited from earlier work
normal CD34+ cells = settings: background; cited from earlier work
[4] = system: active nuclear beta-catenin in BC GMPs; settings: background; cited from earlier work
[5] = system: eIF4E phosphorylation in cerebellar neurons in brain sections; test: Immunoblot of phospho-eIF4E in mouse cerebellar brain slices; settings: 40 μM CGP57380 or 50 nM ETC7168 for 45 mins
Description: For biochemical analyses mice were sacrificed by CO2 inhalation, the cerebellum dissected and rapidly placed in a vibratome chamber and sectioned at 300 μm in cold oxygenated aCSF (in mM: 125 NaCl, 2.5 KCl, 1 MgCl2, 2 CaCl2, 1.25 NaH2PO4, 20 Glucose, 26 NaHCO3, 95% O2/5% CO2). Slices obtained were maintained at 33° C. in oxygenated aCSF and treated with 40 μM CGP57380 or 50 nM ETC7168 for 45 mins and tissues were subsequently snap frozen in liquid nitrogen. Tissues were lysed in 25 mM Tris-HCl, 150 mM NaCl, 1% Triton, 0.2% SDS, 5 mM EDTA, 2 mM DTT, 1 mM NaF, 1 mM Na3VO4 containing protease inhibitor cocktail. The soluble fractions were analyzed by immunoblotting with primary antibodies for 24 hrs at 4° C. followed by detection with secondary antibodies for enhanced chemoluminescent detection. […] Behavioral testing was performed using a well-accepted test for autism that consists of quantitative analysis of ultrasonic vocalizations emitted by male mice exposed to females in estrous^75. […] Prior to testing, the estrous cycle of each female mouse was assessed and only females in estrous were kept for testing. […] Subsequently a female in estrous was introduced in the arena, and ultrasonic vocalizations were recorded for 3 min using the Avisoft system (Avisoft Bioacoustics) with a frequency bandwidth of 30 kHz to 100 kHz. The number and length of ultrasonic vocalizations were quantified. […]

[6] = system: eIF4G levels in brain sections from Nlgn3 knock-out mice; test: Immunoblot of eIF4G in brain slices of Nlgn3 knock-out mice; design: species or system mouse; settings: 40 μM CGP57380 or 50 nM ETC7168
Description: For biochemical analyses mice were sacrificed by CO2 inhalation, the cerebellum dissected and rapidly placed in a vibratome chamber and sectioned at 300 μm in cold oxygenated aCSF (in mM: 125 NaCl, 2.5 KCl, 1 MgCl2, 2 CaCl2, 1.25 NaH2PO4, 20 Glucose, 26 NaHCO3, 95% O2/5% CO2). Slices obtained were maintained at 33° C. in oxygenated aCSF and treated with 40 μM CGP57380 or 50 nM ETC7168 for 45 mins and tissues were subsequently snap frozen in liquid nitrogen. Tissues were lysed in 25 mM Tris-HCl, 150 mM NaCl, 1% Triton, 0.2% SDS, 5 mM EDTA, 2 mM DTT, 1 mM NaF, 1 mM Na3VO4 containing protease inhibitor cocktail. The soluble fractions were analyzed by immunoblotting with primary antibodies for 24 hrs at 4° C. followed by detection with secondary antibodies for enhanced chemoluminescent detection. Impact of MNK inhibitors on autism-related behavior was tested in a knock-out mouse model for autism. Nlgn3 knock-out mouse model a human mutation identified in patients with autism^73-74. Compounds were applied in DMSO using intraperitoneal injection in adult male mice (2-4 months of age). Two injections were performed, the first 30 h and a second one 5 h before testing. Behavioral testing was performed using a well-accepted test for autism that consists of quantitative analysis of ultrasonic vocalizations emitted by male mice exposed to females in estrous^75. The apparatus consisted of an arena (40 cm×20 cm) surrounded by 30-cm-high walls made of grey plastic and equipped with a microphone and a video camera. Prior to testing, the estrous cycle of each female mouse was assessed and only females in estrous were kept for testing. Male mice were acclimatized for 3 min in the chamber. Subsequently a female in estrous was introduced in the arena, and ultrasonic vocalizations were recorded for 3 min using the Avisoft system (Avisoft Bioacoustics) with a frequency bandwidth of 30 kHz to 100 kHz. The number and length of ultrasonic vocalizations were quantified. All animal experiments were approved by the cantonal veterinary office Basel-Stadt, Switzerland.

[7] = system: eIF4E phosphorylation in BC GMPs; settings: background; cited from earlier work
[8] = system: TNF production by macrophage; settings: stimulation with TLR agonists; background; cited from earlier work
[9] = system: normal cord blood CD34+ cells; settings: background; cited from earlier work
BC CD34+ CML cells = settings: background; cited from earlier work
[10] = system: eIF4E Ser209 phosphorylation in Hela cells; test: MNK cell-based assay (AlphaScreen SureFire, eIF4E Ser209 phosphorylation); settings: Homo sapiens; eIF4E Ser209 phosphorylation, Hela cells, 2 hours; read-out: IC50 Hela
Procedure, shortened: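 Hela cells (30,000/well) exposed to test compound in serum-free medium for 2 h at 37 °C, then lysed. Phospho-Ser209 eIF4E quantified by AlphaScreen SureFire; IC50 obtained by non-linear regression of signal versus log compound concentration.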

[11] = system: eIF4E phosphorylation in K562 cells; test: Western blot of eIF4E phosphorylation in K562 cells; assay type: cell-based; settings: various concentrations, 24 h
Description: (§1) K562 cell line was obtained from the ATCC, and grown in RPMI supplemented with 10% FCS, L-glutamine, and penicillin/streptomycin.
(§2) Exponentially growing cells were plated at 2×10^5 cells/ml, and whole cell lysate processed for western blot analysis using antibodies recognizing eIF4E, phospho-eIF4E (Cell signaling Technology),

CD34+ BC cells = test: Serial replating assay, CD34+ BC-CML cells; assay type: cell-based, human; settings: for serial replating efficiency of CD34+ BC cells compared to DMSO: increasing dose, 48 hr treatment, three replatings (>8 weeks)
Text: (§3) Cord Blood (CB) samples were purchased from the Singapore Cord Blood bank. CML samples were the Singapore General Hospital after signed informed consent under local IRB-approved procedures. MNCs were obtained using Ficoll separation, and CD34^+ cells selected by immunomagnetic beads (Miltenyi Biotech, Germany).
CD34-enriched CB and BC cells were thawed and allowed to recover overnight in serum-free StemPro media (Invitrogen, Carlsbad, Calif.), supplemented with human growth factors and 1× nutrient supplement (Invitrogen). Cells were then subjected to drug treatment for 48 hr, harvested, washed, and seeded in methycellulose (H4434, […] Technologies, Canada). Colonies were enumerated after 2 weeks, individually picked, and replated in fresh methylcellulose in a 96-well format, and counted at 2 weeks. Three rounds of serial replating (representing >8 weeks in culture) were performed.

[12] = system: phospho-eIF4E S209 in BC-CML primary cells; test: Immunofluorescence of phospho-eIF4E in BC-CML primary cells; assay type: cell-based, human; settings: 48 h
Text: as §3
(§4) Cells (1×10^5) were cytospun onto glass slides, fixed with 4% paraformaldehye, and stained with mouse monoclonal antibodies against activated β-catenin (clone 8E7, Millipore, UK), or rabbit monoclonal antibodies against phospho-eIF4E S209 (EP2151Y, Abcam, UK). Slides were then stained with either PE-conjugated anti-mouse or FITC-conjugated anti-rabbit antibodies. Images were obtained with the use of a fluorescence microscope (Olympus IX71S1F3) at 40× magnification.

[13] = system: nuclear active beta-catenin in BC-CML primary cells; test: Immunofluorescence of nuclear active beta-catenin in BC-CML primary cells; assay type: cell-based, human
Text: as §3, §4

MV-4-11 (leukemia) = test: Cell cytotoxicity assay (CellTiter-Glo), MV-4-11; assay type: cell-based; settings: Homo sapiens, cell viability
Description: (§5) Cancer cell lines, MV-4-11 (leukemia), P116.c139 (acute T cell leukemia) and D1.1 (acute T cell leukemia), were purchased from ATCC and cultured according to supplier's recommendations. K562 cells (myelogenous leukemia) over-expressing eIF4E, were also used for the cytotoxicity assay. For cells treated for 48 hours, 5000 cells were seeded in 70 μl of growth medium in black, flat-bottom 96-well plate. For cells treated for six days, 1000 cells were seeded in 70 μl of growth medium in black, flat-bottom 96-well plate. […] 50 μl of the diluted compounds was added to the cells and incubated at 37° C. in 5% CO2. After 48 hours or six days treatment, cell viability was determined by CellTiter-Glo Luminescent Cell Viability Assay (Promega, Madison, Wis.). 120 μl of the reagent was added to the cells and luminescence was measured using Tecan Safire Reader. Data was analysed with Graphpad Prism software and the figures represented indicate the half maximal inhibitory concentration (IC50). Error bars denote standard deviation (SD).

[14] = system: K562 cells (myelogenous leukemia) over-expressing eIF4E; test: Cell cytotoxicity assay (CellTiter-Glo), K562; assay type: cell-based; settings: for IC50: Homo sapiens, cell viability
Description: as §5

[15] = system: MV-4-11, P116.c139 and D1.1 cell lines; test: Cell cytotoxicity assay, the three test cell lines taken together; assay type: cell-based
Description: as §5

BCR-ABL = target: T1, BCR-ABL (Homo sapiens, UniProt P00519); test: Western blot of CrK1 phosphorylation (BCR-ABL activity) in K562 cells; assay type: cell-based
T1 construct: host or cells: K562; the other entry of the earlier key: BCR (P11274, Breakpoint cluster region protein)
T1 sequence (P00519 with tags, fused parts or gaps): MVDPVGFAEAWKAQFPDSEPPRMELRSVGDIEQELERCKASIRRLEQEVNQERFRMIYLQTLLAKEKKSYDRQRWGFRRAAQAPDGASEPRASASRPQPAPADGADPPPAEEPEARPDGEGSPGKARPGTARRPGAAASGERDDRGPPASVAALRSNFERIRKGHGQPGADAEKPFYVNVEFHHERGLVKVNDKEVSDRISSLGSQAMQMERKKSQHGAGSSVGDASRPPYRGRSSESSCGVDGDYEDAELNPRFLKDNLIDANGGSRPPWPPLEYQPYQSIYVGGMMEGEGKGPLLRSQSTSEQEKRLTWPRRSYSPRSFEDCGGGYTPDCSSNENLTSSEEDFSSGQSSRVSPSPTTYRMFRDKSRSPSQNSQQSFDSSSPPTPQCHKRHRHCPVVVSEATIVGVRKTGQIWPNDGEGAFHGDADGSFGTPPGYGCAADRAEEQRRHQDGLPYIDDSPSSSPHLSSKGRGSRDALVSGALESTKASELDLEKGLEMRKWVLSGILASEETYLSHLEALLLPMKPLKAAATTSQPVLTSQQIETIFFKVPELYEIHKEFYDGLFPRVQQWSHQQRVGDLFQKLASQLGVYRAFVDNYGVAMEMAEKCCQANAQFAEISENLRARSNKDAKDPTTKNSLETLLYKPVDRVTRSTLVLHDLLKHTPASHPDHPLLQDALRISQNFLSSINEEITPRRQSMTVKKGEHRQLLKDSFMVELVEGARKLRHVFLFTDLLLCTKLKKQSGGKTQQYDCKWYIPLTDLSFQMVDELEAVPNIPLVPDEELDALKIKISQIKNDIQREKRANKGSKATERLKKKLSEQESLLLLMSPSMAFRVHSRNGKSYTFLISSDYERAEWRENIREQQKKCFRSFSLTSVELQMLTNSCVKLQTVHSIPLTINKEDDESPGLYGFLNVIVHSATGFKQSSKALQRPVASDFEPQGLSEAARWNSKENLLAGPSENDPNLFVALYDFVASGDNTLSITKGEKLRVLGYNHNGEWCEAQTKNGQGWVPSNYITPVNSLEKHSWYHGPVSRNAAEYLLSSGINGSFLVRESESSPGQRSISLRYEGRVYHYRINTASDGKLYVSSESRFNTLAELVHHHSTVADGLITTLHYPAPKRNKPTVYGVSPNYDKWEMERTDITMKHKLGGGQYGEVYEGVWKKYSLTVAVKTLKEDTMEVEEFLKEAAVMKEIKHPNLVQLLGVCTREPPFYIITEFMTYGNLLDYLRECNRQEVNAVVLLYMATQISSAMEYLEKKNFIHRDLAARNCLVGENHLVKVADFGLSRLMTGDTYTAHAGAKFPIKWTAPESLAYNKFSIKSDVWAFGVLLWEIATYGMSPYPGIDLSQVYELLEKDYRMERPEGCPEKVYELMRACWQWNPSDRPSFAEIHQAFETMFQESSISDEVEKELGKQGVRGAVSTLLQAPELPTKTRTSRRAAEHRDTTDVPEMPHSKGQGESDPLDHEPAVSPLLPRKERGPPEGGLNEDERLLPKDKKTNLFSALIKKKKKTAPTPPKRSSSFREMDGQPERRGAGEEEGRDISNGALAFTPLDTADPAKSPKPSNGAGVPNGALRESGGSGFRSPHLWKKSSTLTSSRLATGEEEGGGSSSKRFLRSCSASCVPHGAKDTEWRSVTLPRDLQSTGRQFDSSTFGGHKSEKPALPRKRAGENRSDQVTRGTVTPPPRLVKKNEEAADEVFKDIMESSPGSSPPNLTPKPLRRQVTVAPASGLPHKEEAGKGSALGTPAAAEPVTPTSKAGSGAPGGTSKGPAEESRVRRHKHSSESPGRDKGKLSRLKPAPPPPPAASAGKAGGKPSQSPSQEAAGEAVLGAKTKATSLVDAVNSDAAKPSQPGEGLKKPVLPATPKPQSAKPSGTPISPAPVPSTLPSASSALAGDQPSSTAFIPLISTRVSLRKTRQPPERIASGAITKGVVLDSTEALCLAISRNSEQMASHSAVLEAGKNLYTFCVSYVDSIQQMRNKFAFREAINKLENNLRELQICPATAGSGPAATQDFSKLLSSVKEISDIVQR
Description: as §1, §2

[16] = system: D1.1 (acute T cell leukemia); test: Cell cytotoxicity assay (CellTiter-Glo), D1.1; assay type: cell-based; settings: T-cell, cell viability
Description: as §5

[17] = system: P116.c139 (acute T cell leukemia); test: Cell cytotoxicity assay (CellTiter-Glo), P116.c139; assay type: cell-based; settings: T-cell, cell viability
Description: as §5

Compound: CC[n+]1c(/C=C/N(C)c2ccccc2)n(-c2ccccc2)c2ccc(-c3nc4ccccc4s3)cc21.[I-] [AKT inhibitor IV]
eIF4E-mediated increases in beta-catenin transcriptional activity [1]: prevented eIF4E-mediated increases in beta-catenin transcriptional activity

Compound: Nc1ncnc2n[nH]c(Nc3ccc(F)cc3)c12 [CGP57380]
ability of CD34+ BC cells to serially replate for more than 8 weeks in methylcellulose [2]: impaired the ability | serial transplantation of BC cells in NSG mice after in vivo treatment [3]: prevented BC cells from serially transplanting NSG mice | ability of normal CD34+ cells to serially replate (normal CD34+ cells): not | accumulation of active nuclear beta-catenin in BC GMPs [4]: prevents accumulation of active nuclear beta-catenin | eIF4E phosphorylation in cerebellar brain sections [5]: inhibit eIF4E phosphorylation | eIF4G levels in brain sections from Nlgn3 knock-out mice [6]: elevation in eIF4G levels; also recorded: elevated eIF4G levels | eIF4E phosphorylation in BC GMPs [7]: inhibited eIF4E phosphorylation | TNF production / release by macrophage [8]: inhibited; also recorded: inhibits the release of TNF alpha | ability of normal cord blood CD34+ cells to engraft NSG mice after in vitro treatment [9]: not | ability of BC CD34+ CML cells to engraft NSG mice after in vitro treatment (BC CD34+ CML cells): retarded their ability to engraft NSG mice

IC50 [10]: < 1 µM
Compound: CN1CCN(C(=O)c2ccc(-c3cn4c(-c5ccc(O)cc5)cnc4cn3)cc2)CC1 [Example 1, (4-(3-(4-hydroxyphenyl)imidazo[1,2-a]pyrazin-6-l)phenyl)(4-methylpiperazin-1-yl)methanone]
eIF4E phosphorylation in K562 (BC-CML cell line), Western blot [11]: prevent eIF4E phosphorylation | serial replating efficiency of CD34+ BC cells compared to DMSO (CD34+ BC cells): retards the serial replating efficiency | eIF4E phosphorylation in BC-CML primary cells, immunofluorescence [12]: prevent eIF4E phosphorylation

IC50 [10]: < 1 µM
Compound: O=C(c1ccc(-c2cn3c(-c4ccc(O)cc4)cnc3cn2)cc1)N1CCOCC1 [Example 2, (4-(3-(4-hydroxyphenyl)imidazo[1,2-a]pyrazin-6-yl)phenyl)(morpholino)methanone]
eIF4E phosphorylation in K562 (BC-CML cell line), Western blot [11]: prevent eIF4E phosphorylation | ability of BC cells to serial replate (CD34+ BC cells; at 10.0 μM and 20.0 μM): potently impaired the ability of BC cells to serial replate | serial replating efficiency of CD34+ BC cells compared to DMSO (CD34+ BC cells): retards serial replating efficiency | eIF4E phosphorylation in BC-CML primary cells, immunofluorescence [12]: prevent eIF4E phosphorylation

Compound: CN1CCN(C(=O)c2ccc(-c3ccn4ncc(-c5ccc(C#N)cc5)c4n3)cc2)CC1 [Example 176, 4-(5-(4-(4-methylpiperazine-1-carbonyl)phenyl)pyrazolo[1,5-a]pyrimidin-3-yl)benzonitrile]
nuclear active beta-catenin in BC-CML primary cells, immunofluorescence [13]: decrease in nuclear beta-catenin accumulation | IC50 [10]: < 1 µM | IC50 (MV-4-11 (leukemia); MV4-11, 144 h, 6 days, read-out: IC50 after 6 days of treatment, MV-4-11): 0.4 µM | IC50 (MV-4-11 (leukemia); MV4-11, 48 hours, read-out: IC50 after 48 hours of treatment, MV-4-11): 1 µM | eIF4E phosphorylation in K562 (BC-CML cell line), Western blot [11]: prevent eIF4E phosphorylation; also recorded: decrease in eIF4E phosphorylation | IC50 ([14]; K562, 144 h, 6 days, read-out: IC50 after 6 days of treatment, K562): 3.4 µM | IC50 ([14]; K562, 48 hours, read-out: IC50 after 48 hours of treatment, K562): 14.2 µM | change of IC50 when treatment duration was extended from 48 hours to 6 days, K562 ([14]; K562 cells over-expressing eIF4E): reduced by more than half | relative cytotoxicity amongst the four compounds [15]: most cytotoxic | IC50 ([15]; Homo sapiens, MV4-11, regardless of the treatment duration (48 hours or 6 days)): ≤ 1 µM | BCR-ABL activity (phosphorylation of CrK1) in K562 cells (BCR-ABL): decrease in BCR-ABL activity | IC50 ([16]; 144 h, 6 days, read-out: IC50 after 6 days of treatment, D1.1): 0.8 µM | IC50 ([16]; 48 hours, read-out: IC50 after 48 hours of treatment, D1.1): 1 µM | IC50 ([17]; 144 h, 6 days, read-out: IC50 after 6 days of treatment, P116.c139): 0.1 µM | IC50 ([17]; 48 hours, read-out: IC50 after 48 hours of treatment, P116.c139): 0.4 µM

Compound: Cc1nc(Nc2ncc(C(=O)Nc3c(C)cccc3Cl)s2)cc(N2CCN(CCO)CC2)n1 [dasatinib]
ability of CD34+ BC cells to serially replate for more than 8 weeks in methylcellulose [2]: only partially impaired | serial transplantation of BC cells in NSG mice after in vivo treatment [3]: not | accumulation of active nuclear beta-catenin in BC GMPs [4]: not | eIF4E phosphorylation in BC GMPs [7]: not
